Source: patent publication US7452546B2, “Particles containing agricultural active ingredients” (priority 1997, dated 2008)
Read-outs that look alike come from different tables or passages of the source.

Columns and labels:
[1] = Water saturation concentration of active ingredient; format: physicochemical; details: room temperature stated for epoxiconazole
plants = details: cited from earlier work
[2] = The Pesticide Manual, Eleventh Edition, 1997

Fc1ccc([C@]2(Cn3cncn3)O[C@H]2c2ccccc2Cl)cc1 (racemic) [epoxiconazole]
water saturation concentration [1]: 7 ppm

CC(C)(C)C(O)C(Oc1ccc(-c2ccccc2)cc1)n1cncn1 (stereo not drawn) [bitertanol]
phytotoxicity to plants (plants; [2]): can cause damage to fruit crops

CC1COC(Cn2cncn2)(c2ccc(Oc3ccc(Cl)cc3)cc2Cl)O1 (stereo not drawn) [difenoconazole]
phytotoxicity to plants (plants; [2]): can cause chlorosis in wheat

CCCCC(O)(Cn1cncn1)c1ccc(Cl)cc1Cl (stereo not drawn) [hexaconazole]
phytotoxicity to plants (plants; in vivo): can cause damage to McIntosh apples

CC1(C)CCC(Cc2ccc(Cl)cc2)C1(O)Cn1cncn1 (stereo not drawn) [metconazole]
phytotoxicity to plants (plants; in vivo): can cause stunting and yellowing of plants

CC(C)(C)C(O)(CCc1ccc(Cl)cc1)Cn1cncn1 (stereo not drawn) [tebuconazole]
water saturation concentration [1]: 32 ppm
